# Measured values as given in US20180008573A1, “METHODS AND COMPOSITIONS FOR REDUCING DAMAGE ASSOCIATED WITH OXIDATIVE PHOSPHORYLATION” (USANA Health Sciences, Inc., priority 2016, published 2018).
# Marks after values point to notes of the source that are not given here.
# What was measured:
# [1] = system: human NF-κB; assay: NF-κB antagonist reporter assay (NF-κB GRE-luciferase, HEK293 cells); type: cell-based;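 note: reporter cells carry native NF-κB receptor with firefly luciferase under upstream response elements, with a vehicle control included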
# [2] = system: NF-κB reporter cells; assay: Live cell multiplex assay in the NF-κB antagonist assay; type: cell-based, human
# Protocol: A vehicle control was prepared.
# [3] = system: C. elegans strain CB5586; assay: C. elegans phenotypic lifespan screening (Kaplan-Meier, Log-Rank, Fisher's Exact Test); type: in vivo; details: for restricted mean lifespan, # of Days: DMSO control 13.23
# Protocol: Dilutions of the test formulations were applied to individual populations of C. elegans and the lifespan of each population was monitored. Any changes in the lifespan of an individual population compared to a control population were recorded and correlated to the respective test formulation (N356 or N357) and the respective dilution (0.1 mg/ml, 1 mg/ml, and 10 mg/ml).
# The […] and N357 formulations were each prepared as individual 100 mg/ml stock solutions in dimethyl sulfoxide (DMSO). Serial dilutions of each stock solution were then prepared at 0.1 mg/ml, 1 mg/ml, and 10 mg/ml in DMSO. Control solutions of DMSO only were also prepared. Synchronous aged adult populations of C.elegans strain CB5586 worms were prepared. The CB5586 strain comprises a pharyngeal GFP (green fluorescent protein) tag and a mutation in the bus-5 gene. The pharyngeal GFP tag allows for fluorescent images of the worm populations to be taken. The mutation in the bus-5 gene causes the loss of normal cuticle antigens that permits the cuticle of the worms to become permeable to the test formulations and allow direct uptake of the test formulations to avoid interaction of the test formulations with protective mechanisms of the gut channel. Each serial dilution of each test formulation was added to a separate population of the prepared worms. The control solutions were also added to separate populations of the prepared worms. The populations of the prepared worms were then maintained on standard nematode growth media (NGM) agar plates at 20° C. with sufficient food (Escherichia coli strain OP-50).
# Each worm population was then monitored by fluorescent imaging to determine the number of living and dead worms as a function of time. The fluorescent imaging was analyzed by software that recognized and counted worms based on their fluorescent intensity compared to background fluorescence. […] The ability to distinguish between living and dead worms allowed the number of living worms and cumulative number of dead worms to be monitored against time. Worm populations from a selection of fluorescent images were manually checked to verify that the software had accurately counted the number of living and dead worms.
# The counts of the living and dead worms as a function of time were then analyzed for each of the worm populations and used to prepare Kaplan-Meier survival curves and associated statistics for each of the worm populations. […] The median lifespan is shown as the length of time after the last mitotic division that 50% of the test population remains viable when compared to the control population. The maximum lifespan extension is shown as the length of time after the last mitotic division that 5% of the test population remains viable when compared to the control population.
# The counts of the living and dead worms as a function of time and the Kaplan-Meier survival curves and the associated statistics were then analyzed for each of the worm populations. The analysis included determining mean and median lifespan. The analysis included a non-parametric test, the Log-Rank test, that compares two survival functions for the overall lifespan assay and provides a reliable p-value summarizing the whole experiment. The analysis also included Fisher's Exact Test that calculated the significance of survival function comparisons at multiple specific time points throughout the experiment, rather than for the overall lifespan. The results of the analysis are shown below in Tables 10-17.
# Phenotypic screening was carried out as described in EXAMPLE 2 for various individual compounds of the N357 formulation. […] Alpha lipoic acid was sourced from PureBulk USA as a racemic mix of R and S stereoisomers and was assigned a sample number of N198. Hesperidin was sourced from Sigma Aldrich at ≧80% purity and was assigned a sample number of N347. […]
# [4] = biological target: T1, Nrf2 (Homo sapiens, UniProt Q16236); assay: Nrf2 signaling fluorescent reporter assay in human retinal epithelial cell line; type: cell-based; set-up: host or cells: human retinal epithelial cell line
# T1 sequence (Q16236 1-605): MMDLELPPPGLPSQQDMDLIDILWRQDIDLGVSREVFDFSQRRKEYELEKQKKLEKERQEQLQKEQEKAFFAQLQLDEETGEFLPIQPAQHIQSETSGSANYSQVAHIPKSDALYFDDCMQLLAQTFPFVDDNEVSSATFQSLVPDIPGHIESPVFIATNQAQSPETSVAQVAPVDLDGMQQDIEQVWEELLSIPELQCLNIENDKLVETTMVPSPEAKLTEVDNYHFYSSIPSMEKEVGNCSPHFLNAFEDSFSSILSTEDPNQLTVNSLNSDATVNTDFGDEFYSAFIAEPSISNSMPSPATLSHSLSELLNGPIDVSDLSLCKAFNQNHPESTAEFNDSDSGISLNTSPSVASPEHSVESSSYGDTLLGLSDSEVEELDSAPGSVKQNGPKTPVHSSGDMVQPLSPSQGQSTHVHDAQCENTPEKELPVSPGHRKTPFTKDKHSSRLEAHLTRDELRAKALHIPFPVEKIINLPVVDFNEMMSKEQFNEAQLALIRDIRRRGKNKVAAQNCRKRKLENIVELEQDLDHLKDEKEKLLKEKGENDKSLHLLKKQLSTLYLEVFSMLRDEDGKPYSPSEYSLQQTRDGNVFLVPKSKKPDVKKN
# [5] = biological target: T1, Nrf2; assay: Nrf2 agonist reporter assay (native receptor, ARE-luciferase, CV1 cells); type: cell-based; set-up: comprising either the native receptor (Nrf2 and NF-κB); expressed in transfected cells; host or cells: CV1
# [6] = biological target: T2, human PPARα (Homo sapiens, UniProt Q07869); assay: PPARα agonist reporter assay (Gal4 hybrid receptor, luciferase, CHO cells); type: cell-based
# T2 construct: expressed in transfected cells; host or cells: CHO
# T2 sequence (Q07869 239-466 limits assumed): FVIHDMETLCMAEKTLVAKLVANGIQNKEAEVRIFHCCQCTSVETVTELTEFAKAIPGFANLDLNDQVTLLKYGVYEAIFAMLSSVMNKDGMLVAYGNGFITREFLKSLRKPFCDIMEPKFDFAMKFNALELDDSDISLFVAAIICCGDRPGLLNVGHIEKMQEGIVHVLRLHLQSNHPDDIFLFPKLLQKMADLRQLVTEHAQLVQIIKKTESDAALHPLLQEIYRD
# [7] = biological target: T3, human PPARδ (Homo sapiens, UniProt Q03181); assay: PPARδ agonist reporter assay (Gal4 hybrid receptor, luciferase, CHO cells); type: cell-based
# T3 construct: expressed in transfected cells; host or cells: CHO
# T3 sequence (Q03181 211-439 limits assumed): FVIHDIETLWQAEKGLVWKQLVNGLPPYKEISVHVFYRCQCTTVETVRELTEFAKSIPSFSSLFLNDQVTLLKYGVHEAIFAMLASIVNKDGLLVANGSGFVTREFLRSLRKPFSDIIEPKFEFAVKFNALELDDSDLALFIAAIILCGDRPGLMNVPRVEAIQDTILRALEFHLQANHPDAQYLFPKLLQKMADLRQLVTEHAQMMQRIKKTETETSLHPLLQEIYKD
# [8] = biological target: T4, human PPARγ (Homo sapiens, UniProt P37231); assay: PPARγ agonist reporter assay (Gal4 hybrid receptor, luciferase, CHO cells); type: cell-based
# T4 construct: expressed in transfected cells; host or cells: CHO
# T4 sequence (P37231 238-503 limits assumed): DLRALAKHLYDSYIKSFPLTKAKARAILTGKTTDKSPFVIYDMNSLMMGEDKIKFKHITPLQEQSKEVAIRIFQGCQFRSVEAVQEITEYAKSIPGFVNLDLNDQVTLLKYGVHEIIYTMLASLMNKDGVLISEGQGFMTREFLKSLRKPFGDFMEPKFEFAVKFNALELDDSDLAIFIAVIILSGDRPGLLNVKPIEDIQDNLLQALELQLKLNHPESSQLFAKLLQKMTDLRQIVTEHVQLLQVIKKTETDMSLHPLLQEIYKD
compound,measurement,setting,value
"O=c1c(O)c(-c2ccc(O)c(O)c2)oc2cc(O)cc(O)c12 [Quercetin, 2-(3,4-dihydroxyphenyl)-3,5,7-trihydroxy-4H-chromen-4-one]",NF-κB % Inhibition,[1]; 0.28 μg/ml active ingredient,−12%
same,NF-κB % Inhibition,[1]; 0.84 μg/ml active ingredient,−6%
same,NF-κB % Inhibition,[1]; 2.5 μg/ml active ingredient,−12%
same,NF-κB % Inhibition,[1]; 23 μg/ml active ingredient,58** %
same,NF-κB % Inhibition,[1]; 68 μg/ml active ingredient,85** %
same,antagonist activity against human NF-κB,[1]; at the concentrations tested,very low-level antagonist activity
same,NF-κB % Live Cell,[2]; 0.28 μg/ml active ingredient,103%
same,NF-κB % Live Cell,[2]; 0.84 μg/ml active ingredient,99%
same,NF-κB % Live Cell,[2]; 2.5 μg/ml active ingredient,103%
same,NF-κB % Live Cell,[2]; 23 μg/ml active ingredient,97%
same,NF-κB % Live Cell,[2]; 68 μg/ml active ingredient,77*** %
same,compound-induced cytotoxicity,[2]; at the concentrations tested,some evidence of compounded-induced cytotoxicity
same,Statistically Significant Result (lifespan vs. DMSO control),[3]; 0.1 mg/ml,Statistically significant decrease
same,decrease of lifespan,[3]; 0.1 mg/ml,about 9%
same,population age in days at 25% mortality,[3]; 0.1 mg/ml,9 days
same,population age in days at 50% mortality,[3]; 0.1 mg/ml,11 days
same,population age in days at 75% mortality,[3]; 0.1 mg/ml,14 days
same,population age in days at 90% mortality,[3]; 0.1 mg/ml,18 days
same,effect on chronological lifespan,[3]; 0.1 mg/ml and 10 mg/ml tested,significant negative effect on chronological lifespan at certain tested concentrations
same,% Change in Mean Lifespan,[3]; 0.1 mg/ml vs. DMSO control,−9%
same,"restricted mean lifespan, # of Days",[3]; 0.1 mg/ml,12.17 days
same,Statistically Significant Result (lifespan vs. DMSO control),[3]; 10 mg/ml,No statistical difference
same,population age in days at 25% mortality,[3]; 10 mg/ml,9 days
same,population age in days at 50% mortality,[3]; 10 mg/ml,14 days
same,population age in days at 75% mortality,[3]; 10 mg/ml,16 days
same,"restricted mean lifespan, # of Days",[3]; 10 mg/ml,12.54 days
same,activation of Nrf2,[4]; 10 μM and 1 μM against a control,"demonstrated activation of Nrf2 at both 10 μM and 1 μM, with more activation at the 1 μM concentration"
same,minimum inducing concentration (Nrf2),[4]; human retinal epithelial cell line,0.55 µM
same,agonist activity against human Nrf2,[5]; at the concentrations tested,low-level agonist activity
"COc1ccc([C@@H]2CC(=O)c3c(O)cc(O)cc3O2)cc1O [Hesperetin, (S)-2,3-Dihydro-5,7-dihydroxy-2-(3-hydroxy-4-methoxyphenyl)-4H-1-benzopyran-4-one]",PPARα Fold-Activation,[6]; 0.043 μg/ml active ingredient,1.4 fold
same,PPARα Fold-Activation,[6]; 0.389 μg/ml active ingredient,1.2 fold
same,PPARα Fold-Activation,[6]; 1.167 μg/ml active ingredient,1.0 fold
same,PPARα Fold-Activation,[6]; 3.5 μg/ml active ingredient,0.79 fold
same,PPARδ Fold-Activation,[7]; 0.043 μg/ml active ingredient,1.1 fold
same,PPARδ Fold-Activation,[7]; 0.389 μg/ml active ingredient,1.0 fold
same,PPARδ Fold-Activation,[7]; 1.167 μg/ml active ingredient,1.1 fold
same,PPARδ Fold-Activation,[7]; 3.5 μg/ml active ingredient,0.89 fold
same,PPARγ Fold-Activation,[8]; 0.043 μg/ml active ingredient,1.0 fold
same,PPARγ Fold-Activation,[8]; 0.389 μg/ml active ingredient,1.1 fold
same,PPARγ Fold-Activation,[8]; 1.167 μg/ml active ingredient,1.1 fold
same,PPARγ Fold-Activation,[8]; 3.5 μg/ml active ingredient,0.55 fold
same,NF-κB % Inhibition,[1]; 0.043 μg/ml active ingredient,−11%
same,NF-κB % Inhibition,[1]; 0.389 μg/ml active ingredient,−2.1%
same,NF-κB % Inhibition,[1]; 1.167 μg/ml active ingredient,14%
same,NF-κB % Inhibition,[1]; 3.5 μg/ml active ingredient,39%
same,NF-κB % Live Cell,[2]; 0.043 μg/ml active ingredient,98%
same,NF-κB % Live Cell,[2]; 0.389 μg/ml active ingredient,99%
same,NF-κB % Live Cell,[2]; 1.167 μg/ml active ingredient,98%
same,NF-κB % Live Cell,[2]; 3.5 μg/ml active ingredient,96%
same,Nrf2 Fold-Activation,[5]; 0.043 μg/ml active ingredient,1.4 fold
same,Nrf2 Fold-Activation,[5]; 0.389 μg/ml active ingredient,1.3 fold
same,Nrf2 Fold-Activation,[5]; 1.167 μg/ml active ingredient,1.5 fold
same,Nrf2 Fold-Activation,[5]; 3.5 μg/ml active ingredient,0.94 fold
